The values that follow come from patent US8227452B2, “Use of a steroid prodrug for the treatment of disease of the posterior segment of the eye” (Novagali Pharma SA, priority 2006, dated 2012).

Where two headings read alike, the source gives them in different places.

The conditions of data set [1]: high-dose intraocular, long-term follow-up; cited from earlier work.
The conditions of data set [2]: implantation of 0.59 mg or 2.1 mg, noninfectious posterior uveitis patients; cited from earlier work.
The conditions of data set [3]: 0.59 mg intravitreal implant, patients with diabetic macular edema; cited from earlier work.
For data set [4] the following is noted: rabbit, in vivo. The text has this: Analytes and internal standard (roxithromycine) were extracted from the tissues using acetonitrile and separated by reverse phase liquid chromatography with a C8 column and a gradient mobile phase. […] The unweighed linear model was applied.
For data set [5] the following is noted: cited from earlier work.
For data set [6] the following is noted: subtenon administration; cited from earlier work.
Setting [7] is: single oral administration of 7.5 mg dexamethasone.

As to `CC1(C)O[C@@H]2C[C@H]3[C@@H]4C[C@H](F)C5=CC(=O)C=C[C@]5(C)[C@@]4(F)[C@@H](O)C[C@]3(C)[C@]2(C(=O)CO)O1` [fluocinolone acetonide], in data set [1], the “Eyes developing elevated IOP” value was 100%, the “Eyes requiring implant removal” value is given as “approximately 60%” and the “Eyes showing nonischemic central retinal vein occlusion” value is 30%. For the same compound, the “Augmentation of the need of IOP lowering agents” value in data set [2] was 5 fold. In data set [3], the Serious cataract progression is 43.1% and the “Serious intraocular pressure rise” value is on record as 8.6%.

With `C[C@@H]1C[C@H]2[C@@H]3CCC4=CC(=O)C=C[C@]4(C)[C@@]3(F)[C@@H](O)C[C@]2(C)[C@@]1(O)C(=O)CO` [D, dexamethasone], the “Concentration in choroid, mean” value in data set [4] (1 days) is given as 12 nmol/g; in data set [4] (7 days), 12 nmol/g; in data set [4] (14 days), 9 nmol/g; in data set [4] (28 days), 4 nmol/g; in data set [4] (60 days), 3 nmol/g. Further, the “Concentration in retina, mean” value in data set [4] (1 days) turned out to be 7 nmol/g; in data set [4] (7 days), 11 nmol/g; in data set [4] (14 days) it was 6 nmol/g; in data set [4] (28 days) it was 4 nmol/g; in data set [4] (60 days), 2 nmol/g. In addition, in data set [4] (60 days), the “Concentration in aqueous humor, mean” value was 0 nmol/g. Further, the “Dexamethasone penetration into the vitreous humour” value in data set [5] (repeated topical application: 1 drop of 0.1% dexamethasone phosphate drops hourly for 10 hours) is “less than 2 ng/ml”. Also, the Serum level in data set [5] (setting [7]) is 0.06 µg/mL. Besides, the Vitreous level in data set [5] (setting [7]) was 5 ng/mL.

With `CC1(C)O[C@@H]2C[C@H]3[C@@H]4CCC5=CC(=O)C=C[C@]5(C)[C@@]4(F)[C@@H](O)C[C@]3(C)[C@]2(C(=O)CO)O1` [triamcinolone acetonide], the “Patients with intraocular pressure rise” value in data set [6] was 21%.
